{"source": "paper PMC6495176", "about": "“Steroidal antibiotics are antimetabolites of Acanthamoeba steroidogenesis with phylogenetic implications” (Journal of Lipid Research, 2019)", "key": {"28-AcSMT [1]": {"molecular_target": "T1, 28-AcSMT (Acanthamoeba castellanii, UniProt L8GKC5)", "T1 construct": "gene ACA1_237870", "T1 sequence (L8GKC5 1-346)": "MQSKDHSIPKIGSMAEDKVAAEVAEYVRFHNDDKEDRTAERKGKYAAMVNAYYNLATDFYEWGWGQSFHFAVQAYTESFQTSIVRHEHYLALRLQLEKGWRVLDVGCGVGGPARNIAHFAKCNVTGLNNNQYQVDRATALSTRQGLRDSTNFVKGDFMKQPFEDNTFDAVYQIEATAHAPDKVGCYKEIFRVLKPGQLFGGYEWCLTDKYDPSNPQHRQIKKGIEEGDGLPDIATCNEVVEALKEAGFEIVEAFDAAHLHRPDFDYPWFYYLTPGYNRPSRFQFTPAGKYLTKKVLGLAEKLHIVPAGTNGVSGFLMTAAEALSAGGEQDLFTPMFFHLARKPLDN", "assay": "MALDI-TOF mass shift and retention of 3H-label after Ni-NTA purification; GC-MS of diol products", "assay_type": "binding"}, "24-AcSMT [2]": {"molecular_target": "T2, 24-AcSMT (Acanthamoeba castellanii, UniProt L8GNG7)", "T2 construct": "gene ACA1_193300; recombinant 24-AcSMT (XP_004336540) expressed in E. coli, lysate preparation", "T2 sequence (L8GNG7 entry or part of it)": "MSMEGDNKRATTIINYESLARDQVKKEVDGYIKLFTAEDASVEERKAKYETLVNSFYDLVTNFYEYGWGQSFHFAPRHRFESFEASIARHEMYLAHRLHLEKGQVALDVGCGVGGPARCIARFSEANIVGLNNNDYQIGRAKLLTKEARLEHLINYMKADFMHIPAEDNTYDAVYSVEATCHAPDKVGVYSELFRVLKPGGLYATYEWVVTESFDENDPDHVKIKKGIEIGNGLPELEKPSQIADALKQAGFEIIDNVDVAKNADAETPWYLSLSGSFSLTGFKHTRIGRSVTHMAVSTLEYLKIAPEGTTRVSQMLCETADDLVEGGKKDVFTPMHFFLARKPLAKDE", "assay": "native substrate in steady-state SMT assay (Km)", "assay_type": "biochemical", "details": "cited from earlier work"}, "24-AcSMT [3]": {"molecular_target": "T2, 24-AcSMT", "assay": "steady-state inhibition of cycloartenol methylation by recombinant enzyme; also turned over to ERGT (GC-MS)", "assay_type": "biochemical"}, "28-AcSMT [4]": {"molecular_target": "T3, 28-AcSMT (Acanthamoeba castellanii, UniProt L8GKC5)", "T3 construct": "gene ACA1_237870; recombinant 28-AcSMT (XP_004335307) expressed in E. coli, lysate preparation", "assay": "steady-state inhibition of […]([…])-methylene lophenol methylation by recombinant enzyme, GC-MS; partition ratio and substrate protection", "assay_type": "biochemical"}, "[5]": {"substrate": "C=C(CC[C@@H](C)[C@H]1CC[C@H]2C3=CC[C@H]4[C@H](C)[C@@H](O)CC[C@]4(C)[C@H]3CC[C@]12C)C(C)C", "assay": "cells, lysate or membranes", "assay_type": "biochemical, Acanthamoeba castellanii", "details": "SAM active site"}}}
{"molecule": "C=C(/C=C/[C@@H](C)[C@H]1CC[C@H]2C3=CC=C4C[C@@H](O)CC[C@]4(C)[C@H]3CC[C@]12C)C(C)C", "note": "[compound 15, ergosta-5,7,22,24(28)-tetraen-3-ol]", "values": [{"measurement": "MALDI-TOF mass shift and retention of 3H-label after Ni-NTA purification; GC-MS", "setting": "28-AcSMT [1]", "result": "irreversible nature of the ERGT-28-AcSMT complex was further confirmed by MALDI-TOF analysis showing an increase in molecular mass"}]}
{"molecule": "CC(C)=CCC[C@@H](C)[C@H]1CC[C@@]2(C)[C@@H]3CC[C@H]4C(C)(C)[C@@H](O)CC[C@@]45C[C@@]35CC[C@]12C", "note": "[cycloartenol]", "values": [{"measurement": "Km", "setting": "24-AcSMT [2]", "result": 48, "unit": "µM"}]}
{"molecule": "CC(C)=C/C=C/[C@@H](C)[C@H]1CC[C@H]2C3=CC=C4C[C@@H](O)CC[C@]4(C)[C@H]3CC[C@]12C", "note": "[CHT]", "values": [{"measurement": "Ki", "setting": "24-AcSMT [3]", "result": 18, "unit": "µM"}, {"measurement": "Ki", "setting": "28-AcSMT [4]", "result": 8, "unit": "µM"}]}
{"molecule": "28-AcSMT (Acanthamoeba castellanii str. Neff) (protein, recombinant 28-AcSMT (XP_004335307) expressed in E. coli, lysate preparation) MQSKDHSIPKIGSMAEDKVAAEVAEYVRFHNDDKEDRTAERKGKYAAMVNAYYNLATDFYEWGWGQSFHFAVQAYTESFQTSIVRHEHYLALRLQLEKGWRVLDVGCGVGGPARNIAHFAKCNVTGLNNNQYQVDRATALSTRQGLRDSTNFVKGDFMKQPFEDNTFDAVYQIEATAHAPDKVGCYKEIFRVLKPGQLFGGYEWCLTDKYDPSNPQHRQIKKGIEEGDGLPDIATCNEVVEALKEAGFEIVEAFDAAHLHRPDFDYPWFYYLTPGYNRPSRFQFTPAGKYLTKKVLGLAEKLHIVPAGTNGVSGFLMTAAEALSAGGEQDLFTPMFFHLARKPLDN", "values": [{"measurement": "Km", "setting": "[5]", "result": 44, "unit": "µM"}]}
